Read-outs that look alike come from different tables or passages of the source.
Biological target: PI3Kα (alpha) (Homo sapiens (Human), UniProt P42336)
Test: p110α (alpha) PI3K Binding Assay (ADP-Glo lipid kinase reaction)
Format: biochemical
Conditions: read-out: PI3Kα-(alpha) ATP (Ki) micromolar
Experimental: The ability of a compound of the invention to act as an inhibitor of PI3Kα was determined using the methods of Example 901.
PI3K Binding assays are intended for determining the biochemical potency of small molecule PI3K inhibitors. The PI3K lipid kinase reaction is performed in the presence of PIP2:3PS lipid substrate (Promega #V1792) and ATP. Following the termination if the kinase reaction, turnover of ATP to ADP by the phosphorylation of the lipid substrate is detected using the Promega ADP-Glo™ (Promega #V1792) assay. Reactions are carried out using the following conditions:
After 120 minutes of reaction time, the kinase reaction is terminated. Any ATP remaining after the reaction is depleted, leaving only ADP. Then the Kinase Detection Reagent is added to convert ADP to ATP, which is used in a coupled luciferin/luciferase reaction. The luminescent output is measured and is correlated with kinase activity.
All reactions are carried out at room temperature. A 3 μl mixture (1:1) of enzyme/lipid substrate solution is added to a 384 well white assay plate (Perkin Elmer #6007299) containing 50 nl of test compound or DMSO only for untreated controls. The reaction is started by the addition of 2 μl ATP/MgCl2. The kinase reaction buffer contains 50 mM HEPES, 50 mM NaCl, 3 mM MgCl2, 0.01% BSA, 1% DMSO, and enzyme and substrate concentrations as indicated in the above table. The reaction is stopped by the addition of 10 μL ADP-Glo reagent. Plates are read in a Perkin Elmer Envision system using luminescence mode. 10 point dose response curves are generated for each test compound. Ki values for each compound are determined using the Morrison Equation.

[1] = PI3K alpha 0.2 nM, ATP 40 μM, PIP2:3PS 50 μM, 120 min, room temperature, Ki by Morrison Equation

Chain of PI3Kα (alpha) (P42336 whole entry): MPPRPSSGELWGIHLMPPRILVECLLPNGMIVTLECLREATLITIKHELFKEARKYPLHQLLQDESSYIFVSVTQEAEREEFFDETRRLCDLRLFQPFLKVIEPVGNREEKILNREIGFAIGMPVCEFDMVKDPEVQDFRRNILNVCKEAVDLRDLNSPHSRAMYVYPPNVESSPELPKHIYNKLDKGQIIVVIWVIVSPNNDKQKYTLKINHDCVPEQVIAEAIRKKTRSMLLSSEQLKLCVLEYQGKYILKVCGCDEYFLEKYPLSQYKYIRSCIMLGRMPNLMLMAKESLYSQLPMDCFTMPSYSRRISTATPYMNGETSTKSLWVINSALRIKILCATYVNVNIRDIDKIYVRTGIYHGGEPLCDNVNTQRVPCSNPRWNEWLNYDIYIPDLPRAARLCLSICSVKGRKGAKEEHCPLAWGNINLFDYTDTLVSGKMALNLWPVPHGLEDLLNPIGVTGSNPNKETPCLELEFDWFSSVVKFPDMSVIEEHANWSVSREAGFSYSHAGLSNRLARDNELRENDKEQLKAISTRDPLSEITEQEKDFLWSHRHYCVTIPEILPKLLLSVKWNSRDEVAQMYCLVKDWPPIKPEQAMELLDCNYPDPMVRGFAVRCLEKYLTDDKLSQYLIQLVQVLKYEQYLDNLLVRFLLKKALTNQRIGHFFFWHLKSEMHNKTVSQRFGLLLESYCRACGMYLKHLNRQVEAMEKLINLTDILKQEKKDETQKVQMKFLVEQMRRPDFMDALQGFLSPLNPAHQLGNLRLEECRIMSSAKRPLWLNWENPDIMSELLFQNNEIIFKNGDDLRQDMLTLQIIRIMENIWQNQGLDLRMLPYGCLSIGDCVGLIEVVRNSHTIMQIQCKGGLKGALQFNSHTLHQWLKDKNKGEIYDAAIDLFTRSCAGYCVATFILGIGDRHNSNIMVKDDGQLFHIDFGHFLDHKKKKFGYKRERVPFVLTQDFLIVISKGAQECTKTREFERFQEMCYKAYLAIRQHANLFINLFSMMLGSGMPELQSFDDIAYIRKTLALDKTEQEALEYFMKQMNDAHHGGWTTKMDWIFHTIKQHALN
Chain of PI3Kα (alpha) (P27986 whole entry partner): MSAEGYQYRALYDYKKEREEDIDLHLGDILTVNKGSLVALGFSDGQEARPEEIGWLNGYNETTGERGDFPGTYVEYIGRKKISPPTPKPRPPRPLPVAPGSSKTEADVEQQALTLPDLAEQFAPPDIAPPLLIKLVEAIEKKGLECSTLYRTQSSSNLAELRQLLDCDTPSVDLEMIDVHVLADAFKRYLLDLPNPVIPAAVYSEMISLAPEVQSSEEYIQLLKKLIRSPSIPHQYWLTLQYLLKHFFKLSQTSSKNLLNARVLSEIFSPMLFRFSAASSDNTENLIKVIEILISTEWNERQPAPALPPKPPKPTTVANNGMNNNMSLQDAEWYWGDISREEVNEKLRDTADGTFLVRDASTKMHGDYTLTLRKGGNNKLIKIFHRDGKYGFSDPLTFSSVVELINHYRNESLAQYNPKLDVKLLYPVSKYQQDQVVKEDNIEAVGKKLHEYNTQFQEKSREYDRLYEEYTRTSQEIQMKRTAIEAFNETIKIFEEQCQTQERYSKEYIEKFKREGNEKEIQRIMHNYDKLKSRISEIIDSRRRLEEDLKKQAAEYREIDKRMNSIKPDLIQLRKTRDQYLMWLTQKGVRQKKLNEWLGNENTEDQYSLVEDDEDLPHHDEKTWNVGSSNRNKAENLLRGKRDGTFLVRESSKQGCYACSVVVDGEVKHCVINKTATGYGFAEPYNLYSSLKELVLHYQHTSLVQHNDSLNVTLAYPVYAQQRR

Ki [1]	Ki	Compound
0.139 µM		Cn1cc(-c2nc3cc(N[C@H](C(N)=O)C4CC4)cc4c3n2CCCO4)ccc1=O [Example 147, (S)-2-Cyclopropyl-2-((1-(1-methyl-6-oxo-1,6-dihydropyridin-3-yl)-8,9-dihydro-7H-6-oxa-2,9a-diazabenzo[cd]azulen-4-yl)amino)acetamide]
0.059 µM		NC(=O)[C@@H](Nc1cc2c3c(c1)nc(-c1cnc4c(c1)OCCO4)n3CCCO2)C1CC1 [Example 148, (S)-2-Cyclopropyl-2-((1-(2,3-dihydro-[1,4]dioxino[2,3-b]pyridin-7-yl)-8,9-dihydro-7H-6-oxa-2,9a-diazabenzo[cd]azulen-4-yl)amino)acetamide]
0.0182 µM		NC(=O)[C@@H](Nc1cc2c3c(c1)nc(N1Cc4cnc(N)nc4C1)n3CCCO2)C1CC1 [Example 149, (S)-2-((1-(2-Amino-5H-pyrrolo[3,4-d]pyrimidin-6(7H)-yl)-8,9-dihydro-7H-6-oxa-2,9a-diazabenzo[cd]azulen-4-yl)amino)-2-cyclopropylacetamide]
0.49 µM		NC(=O)[C@@H](Nc1cc2c3c(c1)nc(-c1ccc(OC(F)F)cc1)n3CCCO2)C1CC1 [Example 150, (S)-2-Cyclopropyl-2-((1-(4-(difluoromethoxy)phenyl)-8,9-dihydro-7H-6-oxa-2,9a-diazabenzo[cd]azulen-4-yl)amino)acetamide]
0.0102 µM		NC(=O)c1cc(-c2nc3cc(N[C@H](C(N)=O)C4CC4)cc4c3n2CCCO4)ccn1 [Example 151, (S)-4-(4-((2-Amino-1-cyclopropyl-2-oxoethyl)amino)-8,9-dihydro-7H-6-oxa-2,9a-diazabenzo[cd]azulen-1-yl)picolinamide]
0.000638 µM		Nc1nc2cc(-c3nc4cc(-c5cnn(CCO)c5)cc5c4n3CCCO5)ccc2o1 [Example 152, 2-(4-(1-(2-Aminobenzo[d]oxazol-5-yl)-8,9-dihydro-7H-6-oxa-2,9a-diazabenzo[cd]azulen-4-yl)-1H-pyrazol-1-yl)ethanol]
0.00074 µM		Cn1cc(-c2cc3c4c(c2)nc(-c2ccc5oc(N)nc5c2)n4CCCO3)cn1 [Example 153, 5-(4-(1-Methyl-1H-pyrazol-4-yl)-8,9-dihydro-7H-6-oxa-2,9a-diazabenzo[cd]azulen-1-yl)benzo[d]oxazol-2-amine]
0.000317 µM		CNC(=O)C(C)(C)n1cc(-c2cc3c4c(c2)nc(-c2ccc5oc(N)nc5c2)n4CCCO3)cn1 [Example 154, 2-(4-(1-(2-Aminobenzo[d]oxazol-5-yl)-8,9-dihydro-7H-6-oxa-2,9a-diazabenzo[cd]azulen-4-yl)-1H-pyrazol-1-yl)-N,2-dimethylpropanamide]
0.078 µM		NC(=O)[C@@H](Nc1cc2c3c(c1)nc(-c1ccc4[nH]c(=O)oc4c1)n3CCCO2)C1CC1 [Example 155, (S)-2-Cyclopropyl-2-((1-(2-oxo-2,3-dihydrobenzo[d]oxazol-6-yl)-8,9-dihydro-7H-6-oxa-2,9a-diazabenzo[cd]azulen-4-yl)amino)acetamide]
0.000264 µM		NC(=O)[C@@H](Nc1cc2c3c(c1)nc(-c1ccn4ncnc4n1)n3CCCO2)C1CC1 [Example 156, (S)-2-((1-([1,2,4]triazolo[1,5-a]pyrimidin-5-yl)-8,9-dihydro-7H-6-oxa-2,9a-diazabenzo[cd]azulen-4-yl)amino)-2-cyclopropylacetamide]
0.0165 µM		NC(=O)c1cc(-c2nc3cc(N[C@H](C(N)=O)C4CC4)cc4c3n2CCCO4)ccc1F [Example 157, (S)-5-(4-((2-Amino-1-cyclopropyl-2-oxoethyl)amino)-8,9-dihydro-7H-6-oxa-2,9a-diazabenzo[cd]azulen-1-yl)-2-fluorobenzamide]
0.206 µM		COC(=O)c1cc(-c2nc3cc(N[C@H](C(N)=O)C4CC4)cc4c3n2CCCO4)ccc1OC [Example 158, (S)-Methyl 5-(4-((2-amino-1-cyclopropyl-2-oxoethyl)amino)-8,9-dihydro-7H-6-oxa-2,9a-diazabenzo[cd]azulen-1-yl)-2-methoxybenzoate]
0.0872 µM		CS(=O)(=O)c1cc(-c2nc3cc(N[C@H](C(N)=O)C4CC4)cc4c3n2CCCO4)ccn1 [Example 159, (S)-2-Cyclopropyl-2-((1-(2-(methylsulfonyl)pyridin-4-yl)-8,9-dihydro-7H-6-oxa-2,9a-diazabenzo[cd]azulen-4-yl)amino)acetamide]
0.914 µM		Cc1nn(C)cc1-c1nc2cc(N[C@H](C(N)=O)C3CC3)cc3c2n1CCCO3 [Example 160, (S)-2-Cyclopropyl-2-[1-(1,3-dimethyl-1H-pyrazol-4-yl)-8,9-dihydro-7H-6-oxa-2,9a-diazabenzo[cd]azulen-4-ylamino]acetamide]
0.121 µM		NC(=O)[C@@H](Nc1cc2c3c(c1)nc(N1CCn4ncnc4C1)n3CCCO2)C1CC1 [Example 161, (S)-2-Cyclopropyl-2-((1-(5,6-dihydro-[1,2,4]triazolo[1,5-a]pyrazin-7(8H)-yl)-8,9-dihydro-7H-6-oxa-2,9a-diazabenzo[cd]azulen-4-yl)amino)acetamide]
0.000201 µM		C[C@H](Oc1cc2c3c(c1)nc(-c1ccc4oc(N)nc4c1)n3CCCO2)C(N)=O [Example 162, (S)-2-((1-(2-Aminobenzo[d]oxazol-5-yl)-8,9-dihydro-7H-6-oxa-2,9a-diazabenzo [cd]azulen-4-yl)oxy)propanamide]
0.0342 µM		COc1ccc(-c2nc3cc(N[C@H](C(N)=O)C4CC4)cc4c3n2CCCO4)cc1OC(F)F [Example 163, (S)-2-Cyclopropyl-2-((1-(3-(difluoromethoxy)-4-methoxyphenyl)-8,9-dihydro-7H-6-oxa-2,9a-diazabenzo[cd]azulen-4-yl)amino)acetamide]
0.16 µM		COc1ccc(-c2nc3cc(N[C@H](C(N)=O)C4CC4)cc4c3n2CCCO4)cc1C(N)=O [Example 164, (S)-5-(4-((2-Amino-1-cyclopropyl-2-oxoethyl)amino)-8,9-dihydro-7H-6-oxa-2,9a-diazabenzo[cd]azulen-1-yl)-2-methoxybenzamide]
0.108 µM		NC(=O)[C@@H](Nc1cc2c3c(c1)nc(-c1ccncc1)n3CCCO2)C1CC1 [Example 165, (S)-2-Cyclopropyl-2-((1-(pyridin-4-yl)-8,9-dihydro-7H-6-oxa-2,9a-diazabenzo[cd]azulen-4-yl)amino)acetamide]
0.402 µM		OCc1nc2cc(-c3nc4cc(Br)cc5c4n3CCCO5)ccc2o1 [Example 168, (5-(4-Bromo-8,9-dihydro-7H-6-oxa-2,9a-diazabenzo[cd]azulen-1-yl)benzo[d]oxazol-2-yl)methanol]
0.00392 µM		NC(=O)[C@@H](Nc1cc2c3c(c1)nc(-c1ccnc4[nH]ncc14)n3CCCO2)C1CC1 [Example 169, (S)-2-((1-(1H-Pyrazolo[3,4-b]pyridin-4-yl)-8,9-dihydro-7H-6-oxa-2,9a-diazabenzo[cd]azulen-4-yl)amino)-2-cyclopropylacetamide]
0.000614 µM		NC(=O)[C@@H](Nc1cc2c3c(c1)nc(-c1ccc4nc(N)sc4c1)n3CCCO2)C1CC1 [Example 170, (S)-2-((1-(2-Aminobenzo[d]thiazol-6-yl)-8,9-dihydro-7H-6-oxa-2,9a-diazabenzo[cd]azulen-4-yl)amino)-2-cyclopropylacetamide]
	0.000501 µM	Nc1nc2cc(-c3nc4cc(Br)cc5c4n3CCCCO5)ccc2o1 [Example 172, 5-(4-bromo-7,8,9,10-tetrahydro-6-oxa-2,10a-diazacycloocta[cd]-inden-1-yl)benzo[d]oxazol-2-amine]

From US10065970B2 (Genentech, Inc., priority 2015, dated 2018)
